Assay type in all cases: biochemical
One experiment addresses T1, PLK1 (Homo sapiens, UniProt P53350).
T1 construct: purchased Invitrogen PV3501
Nature of the experiment: PLK1 Inhibition Assay (Z-Lyte). To be noted: for inhibition at 10 µM: 10 μM compound, read-out: PLK1 relative inhibition percentage at a dose of 10 μM; for IC50: 25 μM ATP, 8 nM PLK1, read-out: PLK1 IC50 Ranges. The protocol:
PLK1 inhibition was determined using the Z-Lyte assay kit from Invitrogen (cat #PV3802). […] The % inhibition values were determined according to the manufacturer's directions and IC50 values were obtained using a non-linear 4 point logistic curve fit (XLfit4, IDBS)

The target in a further experiment is T2, human PLK4 (Homo sapiens, UniProt O00444).
T2 construct: amino terminal GST fusion of residues 1-391 of human PLK4; made in house; host or cells: E. coli
T2 sequence (O00444 1-391): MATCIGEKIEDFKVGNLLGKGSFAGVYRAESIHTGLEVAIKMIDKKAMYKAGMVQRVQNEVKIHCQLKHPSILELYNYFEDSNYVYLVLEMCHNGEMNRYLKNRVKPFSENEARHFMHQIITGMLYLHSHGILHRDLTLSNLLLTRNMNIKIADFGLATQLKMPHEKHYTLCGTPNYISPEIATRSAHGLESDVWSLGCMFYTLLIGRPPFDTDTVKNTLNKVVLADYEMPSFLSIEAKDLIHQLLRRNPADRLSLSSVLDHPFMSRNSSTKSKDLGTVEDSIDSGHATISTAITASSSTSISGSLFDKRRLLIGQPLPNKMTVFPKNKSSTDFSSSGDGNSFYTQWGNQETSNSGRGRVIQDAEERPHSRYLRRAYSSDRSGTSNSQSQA
Nature of the experiment: PLK4 Inhibition Assay (indirect ELISA). To be noted: 15 μM ATP, 4 nM GST-PLK4; read-out: PLK4 IC50 Ranges. Summed up: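 IC50 values, from 4-point logistic fitting, reflect remaining activity measured by indirect ELISA. Enzyme was GST-PLK4 treated with lambda phosphatase and given a 15-minute pre-incubation with compound before ATP start.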
In general terms: ELISA stands for enzyme-linked immunosorbent assay.

The next experiment addresses T3, Aurora A (Homo sapiens, UniProt O14965).
T3 construct: purchased Invitrogen PV3612
T3 sequence (O14965 1-403): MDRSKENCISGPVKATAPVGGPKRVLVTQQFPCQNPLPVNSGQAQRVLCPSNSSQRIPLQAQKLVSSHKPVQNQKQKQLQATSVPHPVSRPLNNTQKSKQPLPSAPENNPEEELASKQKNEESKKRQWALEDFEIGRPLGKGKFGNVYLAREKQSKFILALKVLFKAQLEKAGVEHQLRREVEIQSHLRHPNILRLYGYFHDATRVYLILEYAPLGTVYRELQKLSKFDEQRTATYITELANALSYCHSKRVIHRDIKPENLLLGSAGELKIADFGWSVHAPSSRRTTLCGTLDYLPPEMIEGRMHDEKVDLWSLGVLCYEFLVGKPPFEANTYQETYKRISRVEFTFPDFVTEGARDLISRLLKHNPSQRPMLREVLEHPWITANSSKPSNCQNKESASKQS
Nature of the experiment: Aurora A Inhibition Assay (Z-Lyte). The settings on record: for IC50: 20 μM ATP, 12 nM Aurora A, read-out: Aurora A IC50 Ranges; for inhibition at 10 µM: 10 μM compound, read-out: Aurora A relative inhibition percentage at a dose of 10 μM. How it is done: Aurora A inhibition was determined using the Z-Lyte assay kit from Invitrogen. The assay was performed using the recommended manufacturer's instructions with 20 μM ATP and 12 nM Aurora A (Invitrogen cat #PV3612). The % inhibition values were determined according to the manufacturer's directions and IC50 values were obtained using a non-linear 4 point logistic curve fit (XLfit4, IDBS)

The target in another experiment is T4, Aurora B (Homo sapiens, UniProt Q96GD4).
T4 construct: purchased Invitrogen PV3970
Nature of the experiment: Aurora B Inhibition Assay (Z-Lyte). To be noted: for IC50: 128 μM ATP, 28 nM Aurora B, read-out: Aurora B IC50 Ranges; for inhibition at 10 µM: 10 μM compound, read-out: Aurora B relative inhibition percentage at a dose of 10 μM. The protocol:
Aurora B inhibition was determined using the Z-Lyte assay kit from Invitrogen. The assay was performed using the recommended manufacturer's instructions with 128 μM ATP and 28 nM Aurora B (Invitrogen cat #PV3970). The % inhibition values were determined according to the manufacturer's directions and IC50 values were obtained using a non-linear 4 point logistic curve fit (XLfit4, IDBS)

A further experiment concerns the target T5, PLK2 (Homo sapiens, UniProt Q9NYY3).
T5 construct: purchased Invitrogen PV4204
Kind of experiment: PLK2 Inhibition Assay (Z-Lyte). To be noted: for inhibition at 10 µM: 10 μM compound, read-out: PLK2 relative inhibition percentage at a dose of 10 μM; for IC50: 60 μM ATP, 133 nM PLK2, read-out: PLK2 IC50 Ranges. How it is done: PLK2 inhibition was determined using the Z-Lyte assay kit from Invitrogen (cat #PV3802). The assay was performed using the recommended manufacturer's instructions with 60 μM ATP and 133 nM PLK2 (Invitrogen cat #PV4204). The % inhibition values were determined according to the manufacturer's directions and IC50 values were obtained using a non-linear 4 point logistic curve fit (XLfit4, IDBS)

Where only a bound is given, the exact number is not on record here.

T4 sequence (Q96GD4 whole entry): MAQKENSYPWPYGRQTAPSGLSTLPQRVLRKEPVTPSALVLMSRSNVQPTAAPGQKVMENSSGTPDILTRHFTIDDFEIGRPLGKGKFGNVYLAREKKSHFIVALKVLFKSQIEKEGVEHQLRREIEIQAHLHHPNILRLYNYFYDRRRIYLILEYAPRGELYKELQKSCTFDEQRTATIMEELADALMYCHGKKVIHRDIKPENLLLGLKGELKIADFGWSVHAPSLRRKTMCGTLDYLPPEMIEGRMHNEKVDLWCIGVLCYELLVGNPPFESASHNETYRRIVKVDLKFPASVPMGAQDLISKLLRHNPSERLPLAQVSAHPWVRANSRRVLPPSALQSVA
T1 sequence (P53350 whole entry): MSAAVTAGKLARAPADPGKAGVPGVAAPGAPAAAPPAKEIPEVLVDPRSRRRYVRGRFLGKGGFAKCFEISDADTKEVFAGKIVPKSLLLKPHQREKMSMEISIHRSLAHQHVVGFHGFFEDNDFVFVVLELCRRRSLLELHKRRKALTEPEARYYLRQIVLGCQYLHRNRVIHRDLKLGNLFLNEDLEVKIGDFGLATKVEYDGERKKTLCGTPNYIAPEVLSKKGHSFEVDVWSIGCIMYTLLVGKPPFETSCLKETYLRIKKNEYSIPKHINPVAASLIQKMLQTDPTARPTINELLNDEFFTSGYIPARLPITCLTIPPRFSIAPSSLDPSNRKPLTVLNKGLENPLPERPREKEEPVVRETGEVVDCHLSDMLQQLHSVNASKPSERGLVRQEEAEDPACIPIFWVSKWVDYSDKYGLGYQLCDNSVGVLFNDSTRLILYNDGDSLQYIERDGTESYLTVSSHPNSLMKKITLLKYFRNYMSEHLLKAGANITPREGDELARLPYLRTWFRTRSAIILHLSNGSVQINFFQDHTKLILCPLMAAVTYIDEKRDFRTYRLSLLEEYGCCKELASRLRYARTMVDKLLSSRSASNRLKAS
T5 sequence (Q9NYY3 whole entry): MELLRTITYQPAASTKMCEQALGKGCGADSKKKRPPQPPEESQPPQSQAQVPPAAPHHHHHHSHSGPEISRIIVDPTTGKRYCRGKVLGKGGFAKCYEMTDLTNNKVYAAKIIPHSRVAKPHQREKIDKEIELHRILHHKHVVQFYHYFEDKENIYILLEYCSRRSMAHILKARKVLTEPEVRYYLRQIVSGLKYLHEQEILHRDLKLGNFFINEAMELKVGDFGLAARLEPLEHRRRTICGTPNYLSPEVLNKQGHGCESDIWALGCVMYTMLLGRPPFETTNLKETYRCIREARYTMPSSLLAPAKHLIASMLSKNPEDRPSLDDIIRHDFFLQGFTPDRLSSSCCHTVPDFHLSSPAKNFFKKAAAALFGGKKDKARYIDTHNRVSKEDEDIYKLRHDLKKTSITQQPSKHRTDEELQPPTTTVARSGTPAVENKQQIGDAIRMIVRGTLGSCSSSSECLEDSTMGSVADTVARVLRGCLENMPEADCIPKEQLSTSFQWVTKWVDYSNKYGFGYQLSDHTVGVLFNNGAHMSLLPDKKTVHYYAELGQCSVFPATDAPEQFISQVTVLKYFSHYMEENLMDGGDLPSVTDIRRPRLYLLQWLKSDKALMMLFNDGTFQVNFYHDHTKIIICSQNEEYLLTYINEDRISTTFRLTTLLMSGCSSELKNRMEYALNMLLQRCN

As a reminder, the inhibition is the percentage by which the read-out fell short of the control. By IC50 is commonly meant the concentration needed to halve the response being measured. For `COc1ccc2c(c1)C(=Cc1ccc3c(/C=C/C(=O)N4CCN(C)CC4)n[nH]c3c1)C(=O)N2` (mixture of isomers) [Example A118, (E and Z)-5-methoxy-3-((3-((E)-3-(4-methylpiperazin-1-yl)-3-oxoprop-1-enyl)-1H-indazol-6-yl)methylene)indolin-2-one], the inhibition at 10 µM at PLK1 and on PLK2 was less than 50% throughout. Further, the IC50 on human PLK4, at Aurora A and at Aurora B was less than 5 µM throughout.
Turning to `O=C1Nc2ncc(Br)cc2C1=Cc1ccc2cn[nH]c2c1` (racemic) [Example A69, (E and Z)-3-((1H-indazol-6-yl)methylene)-5-bromo-1H-pyrrolo[2,3-b]pyridin-2(3H)-one], the inhibition at 10 µM at PLK1, on Aurora A, at Aurora B and on PLK2 was greater than 50% throughout. Further, the IC50 at human PLK4 is less than 5 µM.
For the compound `O=C1Nc2ccc(Br)cc2/C1=C\c1ccc2[nH]nnc2c1` [Example A3, (E)-3-((1H-benzo[d][1,2,3]triazol-5-yl)methylene)-5-bromoindolin-2-one], the IC50 at PLK1 is 5 to 50 µM; at human PLK4, less than 5 µM; at Aurora B, 5 to 50 µM. The inhibition at 10 µM at Aurora A was less than 50%; at PLK2, greater than 50%.
With `O=C1Nc2ccc(C(=O)Nc3ccccc3)cc2/C1=C\c1ccc2cn[nH]c2c1` [Example A11, (E)-3-((1H-indazol-6-yl)methylene)-2-oxo-N-phenylindoline-5-carboxamide], the half-maximal inhibitory concentration (IC50) at PLK1 was greater than 50 µM; on human PLK4 it was less than 5 µM. For the same compound, the figures for the inhibition at 10 µM at Aurora A, at Aurora B and at PLK2 were greater than 50%, greater than 50% and less than 50%, respectively.
For the compound `CC(=O)Nc1ccc2c(c1)NC(=O)/C2=C/c1ccc2cn[nH]c2c1` [Example A13, (E)-N-(3-((1H-indazol-6-yl)methylene)-2-oxoindolin-6-yl)acetamide], the 50% inhibitory concentration (IC50) at PLK1 was 5 to 50 µM; on human PLK4 it was less than 5 µM. The inhibition at 10 µM at Aurora A is greater than 50%; on Aurora B it was less than 50%; at PLK2, less than 50%.
As for `O=C1Nc2ccc(F)cc2/C1=C\c1ccc2cn[nH]c2c1` [Example A16, (E)-3-((1H-indazol-6-yl)methylene)-5-fluoroindolin-2-one], the IC50 at PLK1 is 5 to 50 µM; on human PLK4, less than 5 µM; on Aurora A, less than 5 µM; on Aurora B it was less than 5 µM; on PLK2, less than 5 µM.
Regarding `CC(=O)Nc1ccc2c(c1)/C(=C\c1ccc3cn[nH]c3c1)C(=O)N2` [Example A22, (E)-N-(3-((1H-indazol-6-yl)methylene)-2-oxoindolin-5-yl)acetamide], the half-inhibitory concentration (IC50) on PLK1 was 5 to 50 µM; at human PLK4, less than 5 µM; on Aurora B, 5 to 50 µM. The inhibition at 10 µM on Aurora A and at PLK2 was greater than 50% each time.
For `O=C1Nc2ccc(Br)cc2/C1=C\c1ccc2cn[nH]c2c1` [Example A35, (E)-3-((1H-indazol-6-yl)methylene)-5-bromoindolin-2-one], the concentration for half-maximal inhibition (IC50) on PLK1 is greater than 50 µM; on human PLK4, less than 5 µM; at Aurora B it was less than 5 µM. The inhibition at 10 µM on Aurora A and on PLK2 was less than 50% each time.
For `O=C1Nc2cc(Cl)ccc2/C1=C\c1ccc2cn[nH]c2c1` [Example A36, (E)-3-((1H-indazol-6-yl)methylene)-6-chloroindolin-2-one], the IC50 on PLK1 was 5 to 50 µM; at human PLK4, less than 5 µM; on Aurora A, greater than 50 µM; on Aurora B, less than 5 µM. At PLK2, the inhibition at 10 µM is less than 50%.
In the case of `CC(C)(C)OC(=O)Nc1ccc2c(c1)NC(=O)/C2=C/c1ccc2cn[nH]c2c1` [Example A37, (E)-tert-butyl 3-((1H-indazol-6-yl)methylene)-2-oxoindolin-6-ylcarbamate], the IC50 at PLK1 was greater than 50 µM; at human PLK4, 5 to 50 µM; at Aurora B it was less than 5 µM; on PLK2, greater than 50 µM. In addition, on Aurora A, the inhibition at 10 µM was less than 50%.
